Read-outs that look alike come from different tables or passages of the source. Starred links: 1 amine or outer side, 2 acyl side, 3 side chain; linkers in the order of their positions; H or OH if unused. Positions of bridges follow the written chain, without caps; N, C: chain ends. Non-standard residues stand in square brackets, D forms with d. Residues, ends and D or L forms follow the SMILES beside them. Groups on a side chain read outwards from the residue. *: point of attachment. Trp(1-Me) = Cn1cc(C[C@H](N)C(=O)O)c2ccccc21; C18 diacid = O=C(O)CCCCCCCCCCCCCCCCC(=O)*; γGlu = O=C(O)[C@H](CCC(=O)[*:2])N[*:1]; Sar = CNCC(=O)O
Legend:
[1] = Solubility test at 10 mg/mL (visual inspection and light scattering); type: physicochemical; conditions: for Solubility, Condition 1 Acetate pH 4: 10 mg/mL compound in 100 mM acetate pH 4; for Solubility, Condition 2 Acetate pH 5: 10 mg/mL compound in 100 mM acetate pH 5; for Solubility, Condition 3 Phosphate pH 6: 10 mg/mL compound in 100 mM phosphate pH 6; for Solubility, Condition 4 Phosphate pH 7: 10 mg/mL compound in 100 mM phosphate pH 7; for Solubility, Condition 5 Phosphate pH 7.5: 10 mg/mL compound in 100 mM phosphate pH 7.5
Method: The solubility of compounds was assessed by measuring light scattering over a pH interval from pH 4 to pH 7.5.
Compounds were dissolved in a stock solution of 20 mg/mL in H2O at pH 2.5 or pH 10.
These stock solutions were diluted 1:1 with 200 mM buffered solution to reach a final solution of 10 mg/mL compound in 100 mM buffer. The 5 investigated conditions were (1) acetate pH 4.0, (2) acetate pH 5.0, (3) phosphate pH 6.0, (4) phosphate pH 7 and (5) phosphate pH 7.5.
Visual inspection included manually checking the 96 well plate for wells that are clear or non-clear. In addition to this a picture of the 96 well plate is taken.
Absorbance was measured at four wavelengths: 280 nm, 325 nm, 340 nm and 360 nm in an UV transparent 96 well microplate in a SpectraMax 190 microplate reader (Molecular Devices).
The criteria for this was a combination of visual inspection and light scattering not exceeding 0.1 AU, where values below 0.1 AU are good in visually clear samples. […]

[2] = system: classical complement pathway; experiment: In vitro haemolysis assay (inhibition of classical complement pathway); type: cell-based, human
Method in brief: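 Serially diluted compound (9 points) was preincubated 15 min at room temperature with diluted human serum, titrated per batch to give 70-90% maximal haemolysis, in Tris/casein buffer pH 7.4 with Mg2+/Ca2+. Antibody-sensitized sheep erythrocytes were then added for 30 min at 37° C, and the reaction was stopped with EDTA. Haemolysis was read at A405, with IC50 from 4PL fit.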

[3] = Table 3, human serum, sensitized sheep red blood cells, read-out: IC50[nM], in vitro analysis of inhibition of hemolysis

Row | Structure (SMILES) | Solubility, Condition 1 Acetate pH 4 [1] | Solubility, Condition 2 Acetate pH 5 [1] | Solubility, Condition 3 Phosphate pH 6 [1] | Solubility, Condition 4 Phosphate pH 7 [1] | Solubility, Condition 5 Phosphate pH 7.5 [1] | IC50 [2, 3] [nM] | IC50 ([2]; Table 4, valine 3 versus isoleucine 3 pairs, read-out: CP hemolysis IC50) [nM]
1 | CC[C@H](C)[C@H](NC(=O)[C@H](C)NC(=O)[C@H](CO)NC(=O)CNC(C)=O)C(=O)N[C@H]1CSSC[C@@H](C(=O)N(C)CC(=O)N[C@@H](CCC(=O)O)C(N)=O)NC(=O)[C@H](CCCNC(=N)N)NC(=O)[C@H](Cc2c[nH]cn2)NC(=O)[C@H](CCC(=O)O)NC(=O)CNC(=O)[C@H](Cc2c[nH]c3ccccc23)NC(=O)[C@H](CC(=O)O)NC(=O)[C@H](CCC(N)=O)NC(=O)[C@H](Cc2c[nH]c3ccccc23)NC(=O)[C@H]([C@@H](C)CC)NC1=O [Compound 40] (Ac-GSAICIWQDWGEHRC[Sar]E-NH2; disulfide 5-15) | − (denotes lack of solubility at the given condition, as UV absorbance at 340 nm exceeds 0.1 AU and/or it is visibly turbid or contains particles.) | − (denotes lack of solubility at the given condition, as UV absorbance at 340 nm exceeds 0.1 AU and/or it is visibly turbid or contains particles.) | + (denotes solubility at the given condition, as determined by UV absorbance being less than 0.1 AU at 340 nm and the sample being clear when manually inspected.) | + (denotes solubility at the given condition, as determined by UV absorbance being less than 0.1 AU at 340 nm and the sample being clear when manually inspected.) | + (denotes solubility at the given condition, as determined by UV absorbance being less than 0.1 AU at 340 nm and the sample being clear when manually inspected.) | < 250 | 
2 | CC[C@H](C)[C@@H]1NC(=O)[C@@H](NC(=O)[C@H](Cc2ccc(O)cc2)NC(=O)[C@H](CCC(=O)O)NC(=O)[C@H](CO)NC(C)=O)CSSC[C@@H](C(=O)N(C)CC(=O)N[C@@H](CCC(=O)O)C(=O)NCC(=O)N[C@@H](CCC(=O)O)C(=O)N[C@@H](CCCCNC(=O)CC[C@H](NC(=O)CNC(=O)CC[C@H](NC(=O)CCCCCCCCCCCCCCCCC(=O)O)C(=O)O)C(=O)O)C(N)=O)NC(=O)[C@H](CCCNC(=N)N)NC(=O)[C@H](Cc2c[nH]cn2)NC(=O)[C@H](CCC(=O)O)NC(=O)CNC(=O)[C@H](Cc2c[nH]c3ccccc23)NC(=O)[C@H](CC(=O)O)NC(=O)[C@H](CCC(N)=O)NC(=O)[C@H](Cc2cn(C)c3ccccc23)NC1=O [Compound 114] (Ac-SEYCI[Trp(1-Me)]QDWGEHRC[Sar]EGEK([γGlu-Gly-γGlu-C18 diacid])-NH2; disulfide 4-14) | + (denotes solubility at the given condition, as determined by UV absorbance being less than 0.1 AU at 340 nm and the sample being clear when manually inspected.) | + (denotes solubility at the given condition, as determined by UV absorbance being less than 0.1 AU at 340 nm and the sample being clear when manually inspected.) | + (denotes solubility at the given condition, as determined by UV absorbance being less than 0.1 AU at 340 nm and the sample being clear when manually inspected.) | + (denotes solubility at the given condition, as determined by UV absorbance being less than 0.1 AU at 340 nm and the sample being clear when manually inspected.) | + (denotes solubility at the given condition, as determined by UV absorbance being less than 0.1 AU at 340 nm and the sample being clear when manually inspected.) | < 500 | 
3 | CC[C@H](C)[C@@H]1NC(=O)[C@@H](NC(=O)[C@H](Cc2ccccc2)NC(=O)[C@H](CCC(=O)O)NC(C)=O)CSSC[C@@H](C(=O)N(C)CC(=O)N[C@@H](CCC(=O)O)C(=O)N[C@@H](C)C(N)=O)NC(=O)[C@H](CCCNC(=N)N)NC(=O)[C@H](Cc2c[nH]cn2)NC(=O)[C@H](CCC(=O)O)NC(=O)CNC(=O)[C@H](Cc2c[nH]c3ccccc23)NC(=O)[C@H](CC(=O)O)NC(=O)[C@H](CCC(N)=O)NC(=O)[C@H](Cc2cn(C)c3ccccc23)NC1=O [Compound 80] (Ac-EFCI[Trp(1-Me)]QDWGEHRC[Sar]EA-NH2; disulfide 3-13) | − (denotes lack of solubility at the given condition, as UV absorbance at 340 nm exceeds 0.1 AU and/or it is visibly turbid or contains particles.) | − (denotes lack of solubility at the given condition, as UV absorbance at 340 nm exceeds 0.1 AU and/or it is visibly turbid or contains particles.) | + (denotes solubility at the given condition, as determined by UV absorbance being less than 0.1 AU at 340 nm and the sample being clear when manually inspected.) | + (denotes solubility at the given condition, as determined by UV absorbance being less than 0.1 AU at 340 nm and the sample being clear when manually inspected.) | + (denotes solubility at the given condition, as determined by UV absorbance being less than 0.1 AU at 340 nm and the sample being clear when manually inspected.) | < 100 | 
4 | CC[C@H](C)[C@@H]1NC(=O)[C@@H](NC(=O)[C@H](Cc2ccccc2)NC(=O)[C@H](CCC(=O)O)NC(=O)[C@H](CO)NC(C)=O)CSSC[C@@H](C(=O)N[C@H](C(=O)N[C@@H](CCC(=O)O)C(=O)N[C@@H](C)C(N)=O)[C@@H](C)O)NC(=O)[C@H](CCCNC(=N)N)NC(=O)[C@H](Cc2c[nH]cn2)NC(=O)[C@H](CCC(=O)O)NC(=O)CN(C)C(=O)[C@H](Cc2c[nH]c3ccccc23)NC(=O)[C@H](CC(=O)O)NC(=O)[C@H](CCC(N)=O)NC(=O)[C@H](Cc2cn(C)c3ccccc23)NC1=O [Compound 77, Ac-SEFC(1)I[1-Me-Trp]QDW[Sar]EHRC(1)TEA-NH2] (Ac-SEFCI[Trp(1-Me)]QDW[Sar]EHRCTEA-NH2; disulfide 4-14) | − (denotes lack of solubility at the given condition, as UV absorbance at 340 nm exceeds 0.1 AU and/or it is visibly turbid or contains particles.) | − (denotes lack of solubility at the given condition, as UV absorbance at 340 nm exceeds 0.1 AU and/or it is visibly turbid or contains particles.) | + (denotes solubility at the given condition, as determined by UV absorbance being less than 0.1 AU at 340 nm and the sample being clear when manually inspected.) | + (denotes solubility at the given condition, as determined by UV absorbance being less than 0.1 AU at 340 nm and the sample being clear when manually inspected.) | + (denotes solubility at the given condition, as determined by UV absorbance being less than 0.1 AU at 340 nm and the sample being clear when manually inspected.) | < 100 | 
5 | CC[C@H](C)[C@H](NC(=O)[C@H](C)NC(=O)[C@H](CO)NC(=O)[C@H](CO)NC(=O)[C@H](CCC(=O)O)NC(C)=O)C(=O)N[C@H]1CSSC[C@@H](C(=O)N[C@H](C(N)=O)[C@@H](C)O)NC(=O)[C@H](CCCNC(=N)N)NC(=O)[C@H](Cc2c[nH]cn2)NC(=O)[C@H](CCC(=O)O)NC(=O)CNC(=O)[C@H](Cc2c[nH]c3ccccc23)NC(=O)[C@H](CC(=O)O)NC(=O)[C@H](CCC(N)=O)NC(=O)[C@H](Cc2c[nH]c3ccccc23)NC(=O)[C@H]([C@@H](C)CC)NC1=O [Compound 3] (Ac-ESSAICIWQDWGEHRCT-NH2; disulfide 6-16) | + (denotes solubility at the given condition, as determined by UV absorbance being less than 0.1 AU at 340 nm and the sample being clear when manually inspected.) | − (denotes lack of solubility at the given condition, as UV absorbance at 340 nm exceeds 0.1 AU and/or it is visibly turbid or contains particles.) | − (denotes lack of solubility at the given condition, as UV absorbance at 340 nm exceeds 0.1 AU and/or it is visibly turbid or contains particles.) | + (denotes solubility at the given condition, as determined by UV absorbance being less than 0.1 AU at 340 nm and the sample being clear when manually inspected.) | + (denotes solubility at the given condition, as determined by UV absorbance being less than 0.1 AU at 340 nm and the sample being clear when manually inspected.) | < 100 | 69

— patent US20220306695A1, “COMPSTATIN ANALOGUES AND THEIR MEDICAL USES” (priority 2019, published 2022)
